Test results as given in paper PMC9920732 (2023).

What was measured:
Assay in all cases: FRET quenching titration (qPCR instrument)
Settings in all cases: 150 mM KCl, 15 mM NaCl; 20 mM Tris pH 7.4, 37 °C, 1 µM DNA; duplex shifted to quadruplex, complete at 50 µM pyridostatin
[1] = tested on: A:THF (Tel22-T annealed to complement with abasic site) (DNA, mismatch bulge abasic, tetrahydrofuran (THF) abasic site at 10 of strand 2) AGGGTTAGGGTTAGGGTTAGGG/CCCTAACCCNAACCCTAACCCT
[2] = tested on: A:U (Tel22-T annealed to U-containing complement) (DNA, duplex, 2'-deoxyuridine at 10 of strand 2) AGGGTTAGGGTTAGGGTTAGGG/CCCTAACCCUAACCCTAACCCT
[3] = tested on: A:Gap (Tel22-T annealed to two shorter complements, one-base gap) (DNA, duplex, 5'-phosphate on strand 3; one-base gap between strands 2 and 3) AGGGTTAGGGTTAGGGTTAGGG/CCCTAACCC/AACCCTAACCCT

Measured: binding

NCCOc1cc(C(=O)Nc2cc(OCCN)c3ccccc3n2)nc(C(=O)Nc2cc(OCCN)c3ccccc3n2)c1
yes: all assays above
